Results reported in the NIST ThermoML archive (doi:10.1021/je049874h).
± gives the expanded uncertainty stated by the source.

Details: Liquid

Row | vapor or sublimation pressure (263.15 K) [kPa] | vapor or sublimation pressure (278.15 K) [kPa] | vapor or sublimation pressure (293.15 K) [kPa] | Structure (SMILES)
1 | 69.6 ± 2 | 125.1 ± 2 | 209.4 ± 2.1 | CCCC [butane]
2 | 580.2 ± 2.8 | 949.6 ± 3.6 | 1473.2 ± 4.8 | FCF [difluoromethane]
